The data set can be described thus: Thermal stability of the crystalline form (X-ray diffraction over temperature loop 25° C.→30 min at 110° C.→25° C.). Type of data set: physicochemical. The procedure: Protoescigenin monohydrate is stable under ambient conditions, up to 100° C. X-ray diffraction measurements of monohydrate were done at the following temperature loop: 25° C.→30 min at 110° C.→25° C.
X-ray powder diffraction (XRPD) studies were performed by means of the MiniFlex diffractometer (Rigaku Coporation, Tokyo Japan) using CuKα radiation (λ=1.54056 Å) with following parameters: • Scanning range 2θ: from 3° to 40° • Scanning speed: 0.5°/min • Measurement step: 2θ: 0.02° • Measurement temperature: ambient temperature • Detector: scintillator

With `CC1(C)CC2C3=CCC4[C@@]5(C)CC[C@H](O)[C@](C)(CO)C5CC[C@@]4(C)[C@]3(C)C[C@@H](O)[C@@]2(CO)[C@@H](O)[C@@H]1O` (some centres unmarked) [Protoescigenin monohydrate, protoescigenin monohydrate], the “form change on heating (X-ray diffraction)” value (after heating for 30 min at 110° C., loop 25° C.→110° C.→25° C.) is listed as “changes to a different form, called form V”. Where the note is “solid state, ambient conditions”, the “stable under ambient conditions, up to (temperature)” value was “up to 100 °C”.

The values above are taken from patent US9073813B2, “Process for the preparation of protoescigenin” (INSTYTUT FARMACEUTYCZNY, priority 2011, dated 2015).
